Laboratory results from patent US11319328B2 (priority 2017, dated 2022).

Legend:
Assay in all cases: cells
Format in all cases: cell-based
cervical cancer Hela = details: cultured 48 h, MTT
Protocol: (§1) A cell strain: Hepatoma HepG2, cervical cancer Hela, lung cancer A549, breast cancer MCF7 cell line and human normal liver cell HL7702 were purchased from Wuhan Boster Biological Technology Co., Ltd.;
(§2) HepG2, Hela, A549, MCF 7 cells in logarithmic growth phase and human normal hepatocytes HL7702 were centrifuged at 1500 rpm for 5 min, and the supernatant was discarded; the cells were digested with a suitable amount of trypsin, and then suspended with a suitable amount of culture medium (HepG2, Hela and HL7702 cells were suspended with penicillin-streptomycin RPMI1640 culture medium containing 10% calf serum, A549 and MCF 7 cells with penicillin-streptomycin high glucose DMEM culture medium containing 10% calf serum, to adjust the cell concentration to 1.5×10^4 cells/well, the cells were seeded in 96-well plates, and the following experimental groups were set:
(§3) 0.10 mL of the cell suspension was added to each well, and incubated at 37° C., 5% CO2 and saturated humidity for 12 h, and the culture medium was discarded when the cell density was nearly 70%. […] 100 μl of 5 mg/ml MTT was added per well, standing for 4 h at 37° C. 100 μl of DMSO was added to each well, followed by shaking on a shaker for 10 min at 37° C., the absorbance (OD) was measured at 492 nm, and the MTT ratio was calculated as the OD value of drug group/OD value of negative control group.

Hepatoma HepG2 = details: cultured 48 h, MTT
Protocol: as §1, §2, §3

[1] = tested on: breast cancer MCF7 cell line; details: cultured 48 h, MTT
Protocol: as §1, §2, §3

[2] = tested on: human normal liver cell HL7702; details: human normal hepatocytes HL7702, cultured 48 h, MTT
Protocol: as §1, §2, §3

lung cancer A549 = details: cultured 48 h, MTT
Protocol: as §1, §2, §3

Row | Molecule | IC50 (cervical cancer Hela) | IC50 (Hepatoma HepG2) | IC50 [1] | IC50 [2] | IC50 (lung cancer A549)
1 | 4β-NH-(2-(5-amino-2-methylphenyl)-4-(3-pyridyl) pyrimidine)-4′-demethylepipodophyllotoxin [Compound 38] | 35.1 ± 5.9 µM | 29.5 ± 3.2 µM | 14.5 ± 3.8 µM | > 100 µM | 15.5 ± 2 µM
2 | 4β-NH-(6-indazolamine)-4′-demethylepipodophyllotoxin [Compound 32] | 6.4 ± 1.8 µM | 19.4 ± 1.5 µM | 21.4 ± 5.9 µM | 17.7 ± 2.2 µM | 25.6 ± 3.7 µM
3 | 4β-NH-(7-indazolamine)-4′-demethylepipodophyllotoxin [Compound 33] | 34 ± 1.1 µM | 22.5 ± 2.6 µM | 16.4 ± 0.9 µM | 29.8 ± 1.9 µM | 24.5 ± 5 µM
4 | COc1cc(C2c3cc4c(cc3C(Nc3cccc5c3C(=O)c3ccccc3C5=O)C3COC(=O)C23)OCO4)cc(OC)c1OC (stereo not drawn) [Compound 1, 4β-NH-(1-aminoanthraquinone) podophyllotoxin] | 0.7 ± 0.1 µM | 0.9 ± 0.05 µM | 0.7 ± 0.01 µM | > 100 µM | 0.2 ± 0.01 µM
5 | COc1cc(C2c3cc4c(cc3C(Nc3ccc5c(c3)C(=O)c3ccccc3C5=O)C3COC(=O)C23)OCO4)cc(OC)c1OC (stereo not drawn) [Compound 2, 4β-NH-(2-aminoanthraquinone) podophyllotoxin] | 2.5 ± 0.3 µM | 9.6 ± 0.8 µM | 2.9 ± 0.1 µM | > 100 µM | 2.9 ± 0.4 µM
6 | COc1cc([C@@H]2c3cc4c(cc3[C@@H](Nc3ccc5c(c3N)C(=O)c3ccccc3C5=O)[C@@H]3COC(=O)[C@H]23)OCO4)cc(OC)c1OC [Compound 3, 4β-NH-(1,2-diaminoanthraquinone) podophyllotoxin] | 24.6 ± 3.2 µM | 52 ± 8.4 µM | 17.5 ± 2.1 µM | > 100 µM | > 100 µM
7 | COc1cc(C2c3cc4c(cc3C(Nc3cccc5c3C(=O)c3cccc(N)c3C5=O)C3COC(=O)C23)OCO4)cc(OC)c1OC (stereo not drawn) [Compound 4, 4β-NH-(1,5-diaminoanthraquinone) podophyllotoxin] | 4.6 ± 0.2 µM | 4.7 ± 0.4 µM | 3.4 ± 0.6 µM | > 100 µM | 2.2 ± 0.3 µM
8 | COc1cc([C@@H]2c3cc4c(cc3[C@@H](Nc3ccc5c(c3)C(=O)c3ccc(N)cc3C5=O)[C@@H]3COC(=O)[C@H]23)OCO4)cc(OC)c1OC [Compound 5, 4β-NH-(2,6-diaminoanthraquinone) podophyllotoxin] | 6.5 ± 0.5 µM | 9.1 ± 1.2 µM | > 100 µM | > 100 µM | > 100 µM
9 | COc1cc([C@@H]2c3cc4c(cc3[C@@H](Nc3nc(N)nc5ccccc35)[C@@H]3COC(=O)[C@H]23)OCO4)cc(OC)c1OC [Compound 6, 4β-NH-(2,4-quinazolinediamine) podophyllotoxin] | 19.2 ± 1.9 µM | > 100 µM | 24.5 ± 4.4 µM | 13.8 ± 1.9 µM | 14.3 ± 2.3 µM
10 | COc1cc(C2c3cc4c(cc3C(Nc3ccc5ncccc5c3)C3COC(=O)C23)OCO4)cc(OC)c1OC (stereo not drawn) [Compound 7, 4β-NH-(6-aminoquinoline) podophyllotoxin] | 0.7 ± 0.03 µM | 0.8 ± 0.01 µM | 0.6 ± 0.03 µM | > 100 µM | 0.3 ± 0.04 µM
11 | COc1cc([C@@H]2c3cc4c(cc3[C@@H](Nc3cccc5ncccc35)[C@@H]3COC(=O)[C@H]23)OCO4)cc(OC)c1OC [Compound 8, 4β-NH-(5-aminoquinoline) podophyllotoxin] | > 100 µM | > 100 µM | > 100 µM | > 100 µM | > 100 µM
12 | COc1cc(C2c3cc4c(cc3C(Nc3cccc5cnccc35)C3COC(=O)C23)OCO4)cc(OC)c1OC (stereo not drawn) [Compound 9, 4β-NH-(5-aminoisoquinoline) podophyllotoxin] | 3.1 ± 0.2 µM | 4.1 ± 1.1 µM | 1.4 ± 0.3 µM | 16.3 ± 2.8 µM | 2.3 ± 0.1 µM
13 | COc1cc([C@@H]2c3cc4c(cc3[C@@H](Nc3cccc5cccnc35)[C@@H]3COC(=O)[C@H]23)OCO4)cc(OC)c1OC [Compound 10, 4β-NH-(8-aminoquinoline) podophyllotoxin] | 2.7 ± 0.3 µM | 4.6 ± 0.4 µM | 1 ± 0.1 µM | 37 ± 4.8 µM | 1.2 ± 0.2 µM
14 | COc1cc([C@@H]2c3cc4c(cc3[C@@H](Nc3cccc5ccc(C)nc35)[C@@H]3COC(=O)[C@H]23)OCO4)cc(OC)c1OC [Compound 11, 4β-NH-(8-aminoquinaldine) podophyllotoxin] | 1.5 ± 0.1 µM | 1.6 ± 0.1 µM | 1 ± 0.2 µM | > 100 µM | 3 ± 0.4 µM
15 | COc1cc(C2c3cc4c(cc3C(Nc3ccc5[nH]ncc5c3)C3COC(=O)C23)OCO4)cc(OC)c1OC (stereo not drawn) [Compound 12, 4β-NH-(5-indazolamine) podophyllotoxin] | 0.5 ± 0.01 µM | 0.3 ± 0.02 µM | 0.4 ± 0.03 µM | 50 µM | 0.2 ± 0.02 µM
16 | COc1cc(C2c3cc4c(cc3C(Nc3ccc5cn[nH]c5c3)C3COC(=O)C23)OCO4)cc(OC)c1OC (stereo not drawn) [Compound 13, 4β-NH-(6-indazolamine) podophyllotoxin] | 2.1 ± 0.3 µM | 1.8 ± 0.2 µM | 1.3 ± 0.2 µM | 33.6 ± 1.5 µM | 2.4 ± 0.2 µM
17 | COc1cc([C@@H]2c3cc4c(cc3[C@@H](Nc3cccc5cn[nH]c35)[C@@H]3COC(=O)[C@H]23)OCO4)cc(OC)c1OC [Compound 14, 4β-NH-(7-indazolamine) podophyllotoxin] | 0.9 ± 0.01 µM | 0.9 ± 0.1 µM | 0.4 ± 0.01 µM | 43.3 ± 2.8 µM | 0.5 ± 0.01 µM
18 | COc1cc(C2c3cc4c(cc3C(Nc3ccc5[nH]ccc5c3)C3COC(=O)C23)OCO4)cc(OC)c1OC (stereo not drawn) [Compound 15, 4β-NH-(5-aminoindole) podophyllotoxin] | 3.8 ± 0.2 µM | 2.5 ± 0.6 µM | 4.8 ± 0.9 µM | 30.5 ± 2.7 µM | 2.2 ± 0.9 µM
19 | COc1cc(C2c3cc4c(cc3C(Nc3ccc5cc[nH]c5c3)C3COC(=O)C23)OCO4)cc(OC)c1OC (stereo not drawn) [Compound 16, 4β-NH-(6-aminoindole) podophyllotoxin] | 0.4 ± 0.01 µM | 0.6 ± 0.01 µM | 0.3 ± 0.01 µM | 140 µM | 0.2 ± 0.02 µM
20 | COc1cc([C@@H]2c3cc4c(cc3[C@@H](Nc3cccc5cc[nH]c35)[C@@H]3COC(=O)[C@H]23)OCO4)cc(OC)c1OC [Compound 17, 4β-NH-(7-aminoindole) podophyllotoxin] | 0.8 ± 0.1 µM | 1.9 ± 0.2 µM | 0.8 ± 0.1 µM | 38.4 ± 2.6 µM | 1 ± 0.1 µM
21 | COc1cc(C2c3cc4c(cc3C(Nc3ccccc3-c3nc5ccccc5[nH]3)C3COC(=O)C23)OCO4)cc(OC)c1OC (stereo not drawn) [Compound 18, 4β-NH-(2-(2-aminophenyl)benzimidazole)-podophyllotoxin] | 4.8 ± 0.2 µM | 3.6 ± 0.3 µM | 1.7 ± 0.2 µM | > 100 µM | 2.8 ± 0.1 µM
22 | COc1cc([C@@H]2c3cc4c(cc3[C@@H](Nc3ccc(C)c(-c5nccc(-c6cccnc6)n5)c3)[C@@H]3COC(=O)[C@H]23)OCO4)cc(OC)c1OC [Compound 19, 4β-NH-(2-(5-amino-2-methylphenyl)-4-(3-pyridyl)pyrimidine)-podophyllotoxin] | 4.8 ± 0.4 µM | 6.6 ± 0.1 µM | 9.5 ± 0.8 µM | > 100 µM | 7.7 ± 0.6 µM
23 | COc1cc(C2c3cc4c(cc3C(Nc3cccc5c3C(=O)c3ccccc3C5=O)C3COC(=O)C23)OCO4)cc(OC)c1O (stereo not drawn) [Compound 20, 4β-NH-(1-aminoanthraquinone)-4′-demethylepipodophyllotoxin] | 8.5 ± 2.1 µM | 8.8 ± 2.1 µM | 2.3 ± 0.1 µM | 53.7 ± 5.3 µM | 1.8 ± 0.2 µM
24 | COc1cc([C@@H]2c3cc4c(cc3[C@@H](Nc3ccc5c(c3)C(=O)c3ccccc3C5=O)[C@@H]3COC(=O)[C@H]23)OCO4)cc(OC)c1O [Compound 21, 4β-NH-(2-aminoanthraquinone)-4′-demethylepipodophyllotoxin] | 1.9 ± 0.3 µM | 1.1 ± 0.4 µM | 4 ± 0.5 µM | 55.4 ± 6.2 µM | > 100 µM
25 | COc1cc(C2c3cc4c(cc3C(Nc3ccc5c(c3N)C(=O)c3ccccc3C5=O)C3COC(=O)C23)OCO4)cc(OC)c1O (stereo not drawn) [Compound 22, 4β-NH-(1,2-diaminoanthraquinone)-4′-demethylepipodophyllotoxin] | > 100 µM | > 100 µM | 18.1 ± 2.8 µM | > 100 µM | > 100 µM
26 | COc1cc([C@@H]2c3cc4c(cc3[C@@H](Nc3cccc5c3C(=O)c3cccc(N)c3C5=O)[C@@H]3COC(=O)[C@H]23)OCO4)cc(OC)c1O [Compound 23, 4β-NH-(1,5-diaminoanthraquinone)-4′-demethylepipodophyllotoxin] | > 100 µM | > 100 µM | > 100 µM | > 100 µM | > 100 µM
27 | COc1cc(C2c3cc4c(cc3C(Nc3ccc5c(c3)C(=O)c3ccc(N)cc3C5=O)C3COC(=O)C23)OCO4)cc(OC)c1O (stereo not drawn) [Compound 24, 4β-NH-(2,6-diaminoanthraquinone)-4′-demethylepipodophyllotoxin] | > 100 µM | > 100 µM | 4.2 ± 1.1 µM | > 100 µM | > 100 µM
